# Results: article PMC8865862 (Journal of Inflammation Research, 2022)
# Biological target: Caspase 1 (CASP1) (Homo sapiens, UniProt P29466)
# Test: live-cell GFP caspase-1
# Assay type: cell-based
# Chain of Caspase 1 (CASP1) (P29466 whole entry): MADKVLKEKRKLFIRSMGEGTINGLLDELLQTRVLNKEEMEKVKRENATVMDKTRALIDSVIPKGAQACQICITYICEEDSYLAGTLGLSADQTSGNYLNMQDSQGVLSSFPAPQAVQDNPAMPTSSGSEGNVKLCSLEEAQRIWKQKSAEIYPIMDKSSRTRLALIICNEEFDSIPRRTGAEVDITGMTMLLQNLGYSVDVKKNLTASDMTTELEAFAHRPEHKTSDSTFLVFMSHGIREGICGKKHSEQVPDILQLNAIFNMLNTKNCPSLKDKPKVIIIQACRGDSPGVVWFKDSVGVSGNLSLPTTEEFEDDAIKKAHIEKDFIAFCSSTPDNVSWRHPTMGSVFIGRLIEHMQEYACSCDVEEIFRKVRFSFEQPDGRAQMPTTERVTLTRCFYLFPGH
# Chain of Caspase 1 (CASP1) (Q96P20 whole entry R262W partner): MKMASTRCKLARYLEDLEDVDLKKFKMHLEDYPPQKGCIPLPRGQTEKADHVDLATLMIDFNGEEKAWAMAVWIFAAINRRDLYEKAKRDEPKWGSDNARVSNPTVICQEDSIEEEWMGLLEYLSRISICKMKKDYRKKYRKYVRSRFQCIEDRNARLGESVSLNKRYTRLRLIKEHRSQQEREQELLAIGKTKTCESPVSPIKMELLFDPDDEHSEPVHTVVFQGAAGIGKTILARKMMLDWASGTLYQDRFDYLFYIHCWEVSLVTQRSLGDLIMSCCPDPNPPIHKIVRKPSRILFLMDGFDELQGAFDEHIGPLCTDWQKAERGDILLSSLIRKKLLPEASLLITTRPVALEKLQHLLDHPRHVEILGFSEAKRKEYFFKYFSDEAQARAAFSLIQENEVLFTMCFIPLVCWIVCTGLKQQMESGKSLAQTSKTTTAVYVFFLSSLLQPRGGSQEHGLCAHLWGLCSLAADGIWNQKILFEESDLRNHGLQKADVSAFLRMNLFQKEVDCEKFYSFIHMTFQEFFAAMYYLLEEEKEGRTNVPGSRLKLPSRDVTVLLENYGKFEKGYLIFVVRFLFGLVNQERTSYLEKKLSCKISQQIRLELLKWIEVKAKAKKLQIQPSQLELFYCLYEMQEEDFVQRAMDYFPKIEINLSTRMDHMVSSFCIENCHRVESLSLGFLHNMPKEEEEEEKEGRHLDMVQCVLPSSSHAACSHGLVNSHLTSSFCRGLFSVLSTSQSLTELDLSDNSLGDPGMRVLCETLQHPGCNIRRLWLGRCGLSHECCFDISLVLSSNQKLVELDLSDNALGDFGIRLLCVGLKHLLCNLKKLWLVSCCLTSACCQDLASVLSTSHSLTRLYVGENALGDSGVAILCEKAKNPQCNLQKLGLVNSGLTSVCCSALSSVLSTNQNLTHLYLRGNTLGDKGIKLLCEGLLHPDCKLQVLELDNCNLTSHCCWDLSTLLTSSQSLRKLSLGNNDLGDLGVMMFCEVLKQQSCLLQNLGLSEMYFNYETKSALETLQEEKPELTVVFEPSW
# Chain of Caspase 1 (CASP1) (Q9ULZ3 whole entry partner): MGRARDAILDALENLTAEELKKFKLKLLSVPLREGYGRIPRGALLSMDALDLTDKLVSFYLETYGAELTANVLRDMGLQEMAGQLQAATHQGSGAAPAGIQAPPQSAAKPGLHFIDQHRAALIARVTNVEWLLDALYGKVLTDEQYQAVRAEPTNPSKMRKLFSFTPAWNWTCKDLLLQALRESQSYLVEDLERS
smiles,measurement,value
CC(C)(C)[C@H](NC(=O)c1ccc(N)c(Cl)c1)C(=O)N1CCC[C@H]1C(=O)N[C@H](C=O)CC(=O)O [VRT-043198],IC50,4.66 µM
